# In patent publication US8710038B2, “Pyrazole kinase modulators and methods of use” (Exelixis, Inc., priority 2004, dated 2014):
# Columns and labels:
# [1] = molecular target: T1, flt-3 (Homo sapiens, UniProt P36888); test: flt-3 Luciferase-Coupled Chemiluminescent Kinase assay (LCCA); assay type: biochemical
# T1 construct: baculovirus expressed human Flt-3 kinase domain R571-S993
# T1 sequence (P36888 571-993): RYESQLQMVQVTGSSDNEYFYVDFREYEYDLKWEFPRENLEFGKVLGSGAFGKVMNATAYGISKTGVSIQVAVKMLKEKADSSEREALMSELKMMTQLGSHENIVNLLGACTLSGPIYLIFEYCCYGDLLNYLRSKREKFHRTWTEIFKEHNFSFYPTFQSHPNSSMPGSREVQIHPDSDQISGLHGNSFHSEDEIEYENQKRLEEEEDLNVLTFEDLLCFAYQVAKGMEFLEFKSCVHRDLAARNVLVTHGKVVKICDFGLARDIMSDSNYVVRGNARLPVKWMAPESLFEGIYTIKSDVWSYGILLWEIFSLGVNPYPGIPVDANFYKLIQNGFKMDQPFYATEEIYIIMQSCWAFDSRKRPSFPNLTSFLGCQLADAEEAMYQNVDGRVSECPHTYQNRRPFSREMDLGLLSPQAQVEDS
# Method: (§1) In the LCCA assays, kinase activity is measured as the percent ATP consumed following the kinase reaction using luciferase-luciferin-coupled chemiluminescence. Greiner 384-well white, clear bottom, medium-binding plates are used for LCCA. Briefly, the kinase reaction is initiated by mixing compounds, ATP and kinase in a 20 uL volume. The mixture is incubated at ambient temperature for 2-4 hrs. At the end of the kinase reaction, a 20 uL luciferase-luciferin mix is added and the chemiluminescent signal is read using a Wallac Victor^2 reader. The luciferase-luciferin mix consists of 50 mM HEPES, pH 7.8, 8.5 ug/mL oxalic acid (pH 7.8), 5 (or 50) mM DTT, 0.4% Triton X-100, 0.25 mg/mL coenzyme A, 63 uM AMP, 28 ug/mL luciferin and 40,000 units of light/mL luciferase. For the LCCA assays, total ATP consumption has been standardized to 25-45% and the IC50 values correlates well with those determined by radiometric assays.
# Flt-3 biochemical activity was assessed using a Luciferase-Coupled Chemiluminescent Kinase assay (LCCA) format. Kinase activity was measured as the percent ATP remaining following the kinase reaction. Remaining ATP was detected by luciferase-luciferin-coupled chemiluminescence. Specifically, the reaction was initiated by mixing test compounds, 5 μM ATP, 3 μM poly-EY and 5 nM Flt-3 (baculovirus expressed human Flt-3 kinase domain R571-S993) in a 20 uL assay buffer (20 mM Tris-HCL pH7.5, 10 mM MgCl2, 0.01% Triton X-100, 1 mM DTT, 2 mM MnCl2). The mixture is incubated at ambient temperature for 3 hours after which 20 uL luciferase-luciferin mix is added and the chemiluminescent signal read using a Wallac Victor^2 reader. The luciferase-luciferin mix consists of 50 mM HEPES, pH 7.8, 8.5 ug/mL oxalic acid (pH 7.8), 5 (or 50) mM DTT, 0.4% Triton X-100, 0.25 mg/mL coenzyme A, 63 uM AMP, 28 ug/mL luciferin and 40,000 units of light/mL luciferase.
# [2] = molecular target: c-Kit (Homo sapiens, UniProt P10721); test: c-Kit biochemical assay (AlphaScreen)
# Chain of c-Kit (P10721 26-976): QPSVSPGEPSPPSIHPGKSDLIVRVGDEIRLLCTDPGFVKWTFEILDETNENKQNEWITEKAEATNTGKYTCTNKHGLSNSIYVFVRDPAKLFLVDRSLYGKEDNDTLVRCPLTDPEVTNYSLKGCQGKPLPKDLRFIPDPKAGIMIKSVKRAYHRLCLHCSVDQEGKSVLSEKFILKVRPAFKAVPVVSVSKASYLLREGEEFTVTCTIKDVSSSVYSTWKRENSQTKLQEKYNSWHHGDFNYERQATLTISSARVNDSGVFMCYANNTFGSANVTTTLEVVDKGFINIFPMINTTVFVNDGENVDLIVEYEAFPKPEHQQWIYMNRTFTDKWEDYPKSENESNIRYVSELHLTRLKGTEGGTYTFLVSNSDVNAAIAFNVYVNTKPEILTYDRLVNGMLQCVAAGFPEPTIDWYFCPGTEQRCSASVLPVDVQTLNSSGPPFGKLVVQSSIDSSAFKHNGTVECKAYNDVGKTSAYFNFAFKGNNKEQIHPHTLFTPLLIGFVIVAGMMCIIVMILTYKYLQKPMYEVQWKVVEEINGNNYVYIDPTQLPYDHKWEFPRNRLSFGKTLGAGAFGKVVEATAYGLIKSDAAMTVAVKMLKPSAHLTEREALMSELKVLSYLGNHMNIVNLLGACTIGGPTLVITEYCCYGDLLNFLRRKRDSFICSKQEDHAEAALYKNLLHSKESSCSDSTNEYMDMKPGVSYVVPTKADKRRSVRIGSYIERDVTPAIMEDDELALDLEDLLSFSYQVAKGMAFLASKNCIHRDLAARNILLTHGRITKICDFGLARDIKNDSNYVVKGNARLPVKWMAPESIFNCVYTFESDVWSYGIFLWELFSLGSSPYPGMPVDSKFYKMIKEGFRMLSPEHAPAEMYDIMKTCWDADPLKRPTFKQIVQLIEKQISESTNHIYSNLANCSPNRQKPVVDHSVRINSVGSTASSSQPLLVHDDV
# Text: (§2) AlphaScreen technology is a proximity assay which utilizes the increase in fluorescent signal occurring when donor and acceptor beads are close in proximity. Biotinylated poly(Glu,Tyr) 4:1 is used as the kinase substrate, in conjunction with streptavidin-coated donor beads and anti-phosphortyrosine antibody PY100-coated acceptor beads. Upon phosphorylation, the peptide substrate can bind to both donor and acceptor beads giving rise to an increase in fluorescence. Compounds, ATP, biotinylated poly(Glu, Tyr) and kinases are mixed in a volume of 20 uL for 1 hr at ambient temperature using Greiner 384-well white clear bottom medium binding plates. Following incubation a 10 uL solution containing […] AlphaScreen beads, 75 mM Hepes, pH 7.4, 300 mM NaCl, 120 mM EDTA, 0.3% BSA and 0.03% Tween-20 is added to each well. After 2-16 hr incubation of the beads, plates are read in a Perkin Elmer AlphaQuest reader. The IC50 values correlates well with those of radiometric assays.
# c-Kit biochemical activity was assessed using AlphaScreen™ (Perkin Elmer) technology, described above. Test compounds, ATP, biotinylated poly(Glu, Tyr) and c-Kit kinase were combined in a volume of 20 μL in a 384-well white, medium binding microtiter plate (Greiner). Reaction mixtures were incubated for 1 hr at ambient temperature. Reactions were quenched by addition of 10 uL of […] AlphaScreen bead suspension containing 75 mM Hepes, pH 7.4, 300 mM NaCl, 120 mM EDTA, 0.3% BSA and 0.03% Tween-20. After 16 hr incubation at ambient temperature plates were read using an AlphaQuest reader (Perkin Elmer).
# [3] = molecular target: EGFR (Homo sapiens, UniProt P00533); test: EGFR kinase inhibition assay; assay type: biochemical
# Chain of EGFR (P00533 25-1210, species assumed): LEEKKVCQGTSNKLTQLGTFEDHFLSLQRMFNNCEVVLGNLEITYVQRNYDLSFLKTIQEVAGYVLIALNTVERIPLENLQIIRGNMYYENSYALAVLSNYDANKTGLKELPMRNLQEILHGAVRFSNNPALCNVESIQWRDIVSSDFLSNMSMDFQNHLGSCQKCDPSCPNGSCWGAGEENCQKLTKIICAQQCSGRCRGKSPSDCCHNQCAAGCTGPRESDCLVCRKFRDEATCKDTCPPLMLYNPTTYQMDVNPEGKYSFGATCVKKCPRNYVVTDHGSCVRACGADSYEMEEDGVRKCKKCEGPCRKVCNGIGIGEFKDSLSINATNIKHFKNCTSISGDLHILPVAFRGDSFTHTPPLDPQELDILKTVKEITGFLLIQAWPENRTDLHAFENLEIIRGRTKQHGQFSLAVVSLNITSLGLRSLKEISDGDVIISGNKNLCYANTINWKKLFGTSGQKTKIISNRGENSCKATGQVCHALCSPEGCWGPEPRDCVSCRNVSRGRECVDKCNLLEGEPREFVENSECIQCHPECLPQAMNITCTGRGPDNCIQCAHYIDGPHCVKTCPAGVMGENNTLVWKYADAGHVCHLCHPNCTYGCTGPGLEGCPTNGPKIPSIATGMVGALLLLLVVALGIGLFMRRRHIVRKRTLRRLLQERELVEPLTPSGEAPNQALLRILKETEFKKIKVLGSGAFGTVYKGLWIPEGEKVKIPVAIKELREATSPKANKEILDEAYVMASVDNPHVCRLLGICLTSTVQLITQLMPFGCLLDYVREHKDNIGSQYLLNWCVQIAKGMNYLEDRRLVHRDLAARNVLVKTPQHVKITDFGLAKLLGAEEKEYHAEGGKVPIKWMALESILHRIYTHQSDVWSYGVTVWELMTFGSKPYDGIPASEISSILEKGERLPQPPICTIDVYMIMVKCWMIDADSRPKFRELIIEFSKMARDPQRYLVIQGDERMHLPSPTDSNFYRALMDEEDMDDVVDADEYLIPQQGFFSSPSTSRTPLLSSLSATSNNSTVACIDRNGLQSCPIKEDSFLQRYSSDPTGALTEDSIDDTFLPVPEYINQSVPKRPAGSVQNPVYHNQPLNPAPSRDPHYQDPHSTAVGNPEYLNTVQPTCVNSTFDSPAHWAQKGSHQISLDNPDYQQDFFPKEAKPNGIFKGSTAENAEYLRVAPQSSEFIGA
# Method: (§3) Kinase activity and compound inhibition are investigated using one or more of the three assay formats described below. The ATP concentrations for each assay are selected to be close to the Michaelis-Menten constant (KM) for each individual kinase. Dose-response experiments are performed at 10 different inhibitor concentrations in a 384-well plate format. The data are fitted to four-parameter equation (2) below; where Y is the observed signal, X is the inhibitor concentration, Min is the background signal in the absence of enzyme (0% enzyme activity), Max is the signal in the absence of inhibitor (100% enzyme activity), IC50 is the inhibitor concentration at 50% enzyme inhibition and H represents the empirical Hill's slope to measure the cooperativity. Typically H is close to unity. Y=Min+(Max−Min)/(1+(X/IC50)^H) Equation (2) ^33P Phosphoryl Transfer Assay: […]
# (§4) Greiner 384-well white, clear bottom, high binding plates are coated with 2 μg/well of protein or peptide substrate in a 50 μL volume overnight at ambient temperature. The coating buffer typically contains 40 μg/mL substrate, 22.5 mM Na2CO3, 27.5 mM NaHCO3, 150 mM NaCl and 3 mM NaN3. The coating solution is aspirated and the plates are washed once with 50 μL of assay buffer and padded dry. Subsequently compounds and enzymes are mixed with γ^33P-ATP (3.3 μCi/nmol) in a total volume of 20 uL in suitable assay buffers. The mixture is incubated at ambient temperature for 1.5-2.5 hrs and terminated by aspiration using a Molecular Devices EMBLA 96-head plate washer. The plates are subsequently washed 6-12 times with PBST or TBS buffer. Scintillation fluid (50 μl/well) is then added, the plates are sealed and activity assessed by liquid scintillation spectrometry using a Perkin Elmer MicroBeta TriLux.
# as §1, §2
# [4] = molecular target: T2, EphB4 (Homo sapiens, UniProt P54760); test: EphB4 kinase inhibition assay; assay type: biochemical
# T2 sequence (P54760 16-987): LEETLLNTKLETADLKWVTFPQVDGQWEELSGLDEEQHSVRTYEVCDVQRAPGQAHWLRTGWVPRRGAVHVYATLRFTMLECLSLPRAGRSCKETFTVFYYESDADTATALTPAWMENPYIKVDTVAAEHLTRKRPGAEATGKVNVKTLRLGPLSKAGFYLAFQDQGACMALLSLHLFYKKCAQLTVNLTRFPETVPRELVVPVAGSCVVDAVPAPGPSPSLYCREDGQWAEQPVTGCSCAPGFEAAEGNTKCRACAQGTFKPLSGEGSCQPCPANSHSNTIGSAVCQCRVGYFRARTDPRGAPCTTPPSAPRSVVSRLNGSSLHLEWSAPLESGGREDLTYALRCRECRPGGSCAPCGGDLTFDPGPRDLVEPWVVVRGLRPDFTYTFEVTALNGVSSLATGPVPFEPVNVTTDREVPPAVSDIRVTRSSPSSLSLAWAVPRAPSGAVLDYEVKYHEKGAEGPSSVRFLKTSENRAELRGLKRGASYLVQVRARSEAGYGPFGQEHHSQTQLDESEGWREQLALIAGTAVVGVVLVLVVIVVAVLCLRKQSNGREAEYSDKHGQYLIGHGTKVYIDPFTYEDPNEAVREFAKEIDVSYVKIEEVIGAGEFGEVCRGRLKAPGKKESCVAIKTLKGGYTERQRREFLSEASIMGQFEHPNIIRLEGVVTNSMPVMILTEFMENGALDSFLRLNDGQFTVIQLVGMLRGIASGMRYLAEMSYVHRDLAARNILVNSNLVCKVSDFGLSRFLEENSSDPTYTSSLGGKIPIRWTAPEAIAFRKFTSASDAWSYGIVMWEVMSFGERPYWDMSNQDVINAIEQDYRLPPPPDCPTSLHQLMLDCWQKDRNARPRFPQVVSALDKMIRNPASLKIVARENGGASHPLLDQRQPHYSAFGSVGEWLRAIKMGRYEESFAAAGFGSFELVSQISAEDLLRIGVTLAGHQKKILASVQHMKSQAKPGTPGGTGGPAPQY
# Method: as §3, §4, §1, §2
SMILES,IC50 [1] [nM],IC50 [2] [nM],IC50 [3] [nM],IC50 [4] [nM]
"COc1cc(NC(=O)Nc2ccc(-c3cc(-c4nc5ccc(N6CCN(C)CC6)cc5[nH]4)n[nH]3)cc2)cc(OC)c1 [Entry 11, N-[3,5-bis(methyloxy)phenyl]-N′-(4-{3-[6-(4-methylpiperazin-1-yl)-1H-benzimidazol-2-yl]-1H-pyrazol-5-yl}phenyl)urea]",< 50,< 50,> 5000,> 5000
"CN1CCN(c2ccc3[nH]c(-c4cc(-c5ccc(NC(=O)Nc6ccc(OC(F)(F)F)cc6)cc5)[nH]n4)nc3c2)CC1 [Entry 12, N-(4-{3-[5-(4-methylpiperazin-1-yl)-1H-benzimidazol-2-yl]-1H-pyrazol-5-yl}phenyl)-N′-{4-[(trifluoromethyl)oxy]phenyl} urea]",< 50,< 50,> 5000,> 5000
"CN1CCN(c2ccc3[nH]c(-c4cc(-c5ccc(NC(=O)Nc6ccc(Cl)c(C(F)(F)F)c6)cc5)[nH]n4)nc3c2)CC1 [Entry 14, N-[4-chloro-3-(trifluoromethyl)phenyl]-N′-(4-{3-[5-(4-methylpiperazin-1-yl)-1H-benzimidazol-2-yl]-1H-pyrazol-5-yl}phenyl)urea]",< 50,< 50,> 5000,> 5000
"CN1CCN(c2ccc3[nH]c(-c4cc(-c5ccc(NC(=O)Nc6cccc(C(F)(F)F)c6)cc5)[nH]n4)nc3c2)CC1 [Entry 15, N-(4-{3-[5-(4-methylpiperazin-1-yl)-1H-benzimidazol-2-yl]-1H-pyrazol-5-yl}phenyl)-N′-[3-(trifluoromethyl)phenyl]urea]",< 50,< 50,> 5000,500 to 5000
"CN1CCN(c2ccc(-c3cc(-c4ccc(NC(=O)Nc5ccc(Cl)c(C(F)(F)F)c5)cc4)[nH]n3)cc2)CC1 [Entry 16, N-[4-chloro-3-(trifluoromethyl)phenyl]-N′-(4-{3-[4-(4-methylpiperazin-1-yl)phenyl]-1H-pyrazol-5-yl}phenyl)urea]",< 50,< 50,> 5000,> 5000
"CN1CCN(c2ccc3[nH]c(-c4cc(-c5ccc(NC(=O)Nc6ccc(Cl)cc6)cc5)[nH]n4)nc3c2)CC1 [Entry 18, N-(4-chlorophenyl)-N′-(4-{3-[5-(4-methylpiperazin-1-yl)-1H-benzimidazol-2-yl]-1H-pyrazol-5-yl}phenyl)urea]",< 50,< 50,> 5000,> 5000
"CN1CCN(c2ccc3[nH]c(-c4cc(-c5ccc(NC(=O)Nc6cc(F)cc(F)c6)cc5)[nH]n4)nc3c2)CC1 [Entry 19, N-(3,5-difluorophenyl)-N′-(4-{3-[5-(4-methylpiperazin-1-yl)-1H-benzimidazol-2-yl]-1H-pyrazol-5-yl}phenyl)urea]",< 50,< 50,> 5000,> 5000

# Now from value to molecule:
IC50 [1] [nM],IC50 [2] [nM],IC50 [3] [nM],IC50 [4] [nM],SMILES
< 50,< 50,> 5000,> 5000,"COc1cccc(NC(=O)Nc2ccc(-c3cc(-c4nc5cc(N6CCN(C)CC6)ccc5[nH]4)n[nH]3)cc2)c1 [Entry 20, N-[3-(methyloxy)phenyl]-N′-(4-{3-[5-(4-methylpiperazin-1-yl)-1H-benzimidazol-2-yl]-1H-pyrazol-5-yl}phenyl)urea]"
< 50,< 50,> 5000,> 5000,"CCN1CCN(c2ccc(-c3cc(-c4ccc(NC(=O)Nc5ccc(Cl)c(C(F)(F)F)c5)cc4)[nH]n3)cc2)CC1 [Entry 21, N-[4-chloro-3-(trifluoromethyl)phenyl]-N′-(4-{3-[4-(4-ethylpiperazin-1-yl)phenyl]-1H-pyrazol-5-yl}phenyl)urea]"
< 50,< 50,> 5000,> 5000,"CN1CCN(c2ccc3[nH]c(-c4cc(-c5ccc(NC(=O)Nc6cccc(F)c6)cc5)[nH]n4)nc3c2)CC1 [Entry 22, N-(3-fluorophenyl)-N′-(4-{3-[5-(4-methylpiperazin-1-yl)-1H-benzimidazol-2-yl]-1H-pyrazol-5-yl}phenyl)urea]"
